Data published in ChEMBL document CHEMBL1132133, “Synthesis and biological activity of a novel series of indole-derived PPARgamma agonists” (Bioorg Med Chem Lett, 1999).
The source made the active and inactive calls. No cut-off for these calls is given here.

Experiments:
[1] = molecular target: T1, Peroxisome proliferator-activated receptor gamma (Homo sapiens, UniProt P37231)
T1 sequence (P37231 whole entry): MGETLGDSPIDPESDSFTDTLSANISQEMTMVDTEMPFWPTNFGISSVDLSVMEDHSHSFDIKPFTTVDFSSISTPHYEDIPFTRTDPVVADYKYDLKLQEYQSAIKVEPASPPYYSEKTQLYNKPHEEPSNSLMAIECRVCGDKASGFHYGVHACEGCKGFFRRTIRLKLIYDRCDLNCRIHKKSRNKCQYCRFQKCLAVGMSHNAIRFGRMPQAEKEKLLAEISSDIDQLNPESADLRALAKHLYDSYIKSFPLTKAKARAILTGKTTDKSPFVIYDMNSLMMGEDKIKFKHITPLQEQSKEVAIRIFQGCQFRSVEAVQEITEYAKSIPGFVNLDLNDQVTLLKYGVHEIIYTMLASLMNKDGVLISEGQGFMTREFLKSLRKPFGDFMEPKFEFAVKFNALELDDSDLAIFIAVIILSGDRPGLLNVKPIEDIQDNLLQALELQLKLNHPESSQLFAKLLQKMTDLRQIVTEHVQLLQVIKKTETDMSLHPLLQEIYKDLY

[2] = molecular target: T2, Peroxisome proliferator-activated receptor alpha (Homo sapiens, UniProt Q07869); experiment: Binding affinity against Peroxisome Proliferator activated receptor alpha (PPAR alpha); Not active
T2 sequence (Q07869 whole entry): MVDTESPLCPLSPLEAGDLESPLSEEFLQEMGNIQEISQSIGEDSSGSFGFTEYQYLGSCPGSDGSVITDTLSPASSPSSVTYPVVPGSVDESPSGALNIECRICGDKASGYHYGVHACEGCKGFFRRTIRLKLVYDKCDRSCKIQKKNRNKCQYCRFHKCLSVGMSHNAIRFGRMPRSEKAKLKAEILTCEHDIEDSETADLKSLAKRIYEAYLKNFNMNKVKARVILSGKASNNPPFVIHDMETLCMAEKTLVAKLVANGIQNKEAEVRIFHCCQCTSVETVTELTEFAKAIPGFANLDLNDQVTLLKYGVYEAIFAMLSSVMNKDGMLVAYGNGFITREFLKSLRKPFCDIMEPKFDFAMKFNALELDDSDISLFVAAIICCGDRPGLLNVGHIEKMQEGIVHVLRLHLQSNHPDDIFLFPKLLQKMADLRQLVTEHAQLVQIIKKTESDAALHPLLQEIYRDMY

[3] = molecular target: T3, Peroxisome proliferator-activated receptor delta (Homo sapiens, UniProt Q03181)
T3 sequence (Q03181 whole entry): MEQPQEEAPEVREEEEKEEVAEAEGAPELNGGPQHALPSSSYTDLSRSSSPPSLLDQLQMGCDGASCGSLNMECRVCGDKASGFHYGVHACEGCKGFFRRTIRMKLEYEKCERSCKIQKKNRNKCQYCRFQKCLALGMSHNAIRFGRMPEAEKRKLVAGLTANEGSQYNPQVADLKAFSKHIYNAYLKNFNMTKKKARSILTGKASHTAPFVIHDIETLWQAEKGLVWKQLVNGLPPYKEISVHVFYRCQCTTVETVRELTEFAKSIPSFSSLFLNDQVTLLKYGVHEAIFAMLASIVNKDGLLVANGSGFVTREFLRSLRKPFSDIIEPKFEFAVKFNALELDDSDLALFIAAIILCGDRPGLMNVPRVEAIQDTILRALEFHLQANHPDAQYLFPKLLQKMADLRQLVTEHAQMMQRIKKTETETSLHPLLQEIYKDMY

[4] = molecular target: T4, Peroxisome proliferator-activated receptor gamma (Homo sapiens) (UniProt P37231); experiment: Transcriptional activation of peroxisome proliferator activated receptor gamma activity; Inactive at 10e-4 M; type: functional
T4 sequence (whole entry): T1 sequence (P37231 whole entry)

[5] = molecular target: T1, Peroxisome proliferator-activated receptor gamma; remark: listed apart in the source
[6] = Pharmacokinetic property (half life) in rat; type: ADME, organism-based; conditions: in vivo
[7] = Pharmacokinetic property (oral bioavailability) in rat (dose given as a solution); type: ADME, organism-based; conditions: in vivo
[8] = molecular target: T1, Peroxisome proliferator-activated receptor gamma; experiment: Inhibitory concentration of the PPAR gamma)
[9] = Pharmacokinetic property (total body clearance) in rat; type: ADME, organism-based; conditions: in vivo, read-out: CLtotal
[10] = molecular target: T1, Peroxisome proliferator-activated receptor gamma; experiment: Binding affinity against human Peroxisome proliferator activated receptor gamma (PPAR gamma)
[11] = Pharmacokinetic property (oral bioavailability) in rat (dose given as a suspension); type: ADME, organism-based; conditions: in vivo
[12] = molecular target: T4, Peroxisome proliferator-activated receptor gamma (Homo sapiens); experiment: Binding affinity against Peroxisome proliferator activated receptor gamma (PPAR gamma); Inactive at 10e-4 M

SMILES	EC50 [1] [nM]	Ki [2]	Ki [3]	Ki [5] [nM]	also measured
CCCc1c(-c2ccccc2)[nH]c2ccc(CC(=O)O)cc12	7080	Not Active	Not Active	–	–
CCc1ccc(CCOc2ccc(CC3SC(=O)NC3=O)cc2)nc1 (stereo unspecified) [PIOGLITAZONE]	–	Not Active	Not Active	–	–
O=C(O)CCc1ccc2[nH]c(-c3ccccc3)c(CCc3ccccc3)c2c1	3020	Not Active	Not Active	–	–
Cn1c(-c2ccccc2)c(CCc2ccccc2)c2cc(OCC(=O)O)ccc21	> 10000	Not Active	Not Active	–	–
O=C(O)Cc1ccc2[nH]c(-c3ccccc3)cc2c1	–	Not Active	Not Active	–	Log EC50 [4]: inactive
COc1ccc(CCc2c(-c3ccccc3)[nH]c3ccc(CC(=O)O)cc23)cc1	43.7	Not Active	Not Active	47.9	half-life [6]: 3.8 h; bioavailability [7]: 78%; IC50 [8]: 50 nM; clearance [9]: 3 mL/min/kg; Ki [10]: 50 nM; bioavailability [11]: 73%
O=C(O)Cc1ccc2[nH]c(-c3ccccc3)c(Cc3ccccc3)c2c1	> 10000	Not Active	Not Active	–	Log Ki [12]: inactive
O=C(O)Cc1ccc2[nH]c(-c3ccccc3)c(-c3ccccc3)c2c1	> 10000	Not Active	Not Active	> 10000	–
O=C(O)Cc1ccc2[nH]c(-c3ccccc3)c(CCc3ccccc3)c2c1	309	Not Active	Not Active	–	–
CN(CCOc1ccc(CC2SC(=O)NC2=O)cc1)c1ccccn1 (stereo unspecified) [ROSIGLITAZONE]	–	Not Active	–	–	–
O=C(O)Cc1ccc2[nH]c(-c3ccc(F)cc3)c(CCc3ccc(F)cc3)c2c1	339	Not Active	Not Active	490	–
O=C1CSC(=O)N1Cc1ccc2[nH]c(-c3ccccc3)c(CCc3ccccc3)c2c1	> 10000	Not Active	Not Active	–	–
Cn1c(-c2ccccc2)c(CCc2ccccc2)c2cc(CC(=O)O)ccc21	5620	Not Active	Not Active	550	–
O=C(O)Cc1ccc2[nH]cc(CCc3ccccc3)c2c1	> 10000	Not Active	Not Active	> 10000	–
CCCc1c(-c2ccccc2)[nH]c2ccc(C(=O)O)cc12	> 10000	Not Active	Not Active	–	–
Cc1c(C)c2c(c(C)c1O)CCC(C)(COc1ccc(CC3SC(=O)NC3=O)cc1)O2 (stereo unspecified) [TROGLITAZONE]	–	Not Active	Not Active	–	–
